Series [1] in a line: Cytotoxicity towards RAW macrophages. It is filed as cell-based. Particulars: mouse, read-out: TC50, cytotoxicity towards RAW macrophages. How it is done: (§1) Cells were seeded in plates and incubated overnight in a humidified incubator at 37° C., 5% CO2. […] After 72-hours of incubation, CellTiter-Glo® reagent (Promega) was added to plates and the relative luminescent units (RLU) were measured using a Synergy 4 plate reader (Biotek). […] Growth inhibition curves were fitted using the Levenberg-Marquardt algorithm. The IC50 was defined as the compound concentration that produced 50% of the growth inhibitory response.

Series [2] relates to THP1 macrophages. Description: Cytotoxicity against THP1 macrophages. It is filed as cell-based.
Series [3] has as its system M. bovis cells. It counts as cell-based, Mycobacterium bovis.
Series [4] in a line: Cytotoxicity towards HepG2 hepatocytes. It counts as cell-based. Particulars: human, read-out: TC50, cytotoxicity towards HepG2 hepatocytes. How it is done:
as §1

The test system of series [5] is Mtb in THP-1 macrophages. Description: Antitubercular activity (Mtb survival) in THP-1 macrophages. It is filed as cell-based, Mycobacterium tuberculosis. Conditions: for IC50: Mycobacterium tuberculosis, THP1MACROPHAGES
The text has this: FIG. 18A depicts time-dependent antitubercular activity in THP-1 macrophages. FIG. 18B depicts the average of the Hill slope values corresponding to the IC50 values used to plot the mean IC50 in FIG. 18A.

Series [6] concerns the target T1, purified recombinant Hip1 (Mycobacterium tuberculosis, UniProt P9WHR3).
T1 sequence (P9WHR3 31-520): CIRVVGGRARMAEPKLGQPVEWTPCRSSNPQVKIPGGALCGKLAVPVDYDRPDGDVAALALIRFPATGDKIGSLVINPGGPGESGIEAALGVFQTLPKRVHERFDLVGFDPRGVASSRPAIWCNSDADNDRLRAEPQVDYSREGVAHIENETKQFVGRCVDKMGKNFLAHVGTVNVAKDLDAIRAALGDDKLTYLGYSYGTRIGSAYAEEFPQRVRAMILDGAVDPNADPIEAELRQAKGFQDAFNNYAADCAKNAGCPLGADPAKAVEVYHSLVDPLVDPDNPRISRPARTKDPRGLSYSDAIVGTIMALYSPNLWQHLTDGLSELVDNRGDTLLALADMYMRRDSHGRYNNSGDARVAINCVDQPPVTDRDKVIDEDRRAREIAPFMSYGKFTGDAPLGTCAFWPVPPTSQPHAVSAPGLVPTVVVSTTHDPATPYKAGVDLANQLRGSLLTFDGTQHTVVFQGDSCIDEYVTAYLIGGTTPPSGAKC
Particulars: cited from earlier work.

Series [7] concerns M. bovis cells. It is filed as cell-based, Mycobacterium bovis. Particulars: cell culture.
The mark [8] stands for this setting: THP-1, 24 h, read-out: IC50 Mean ± SEM.
Setting [9] is: THP-1, 72 h, read-out: IC50 Mean ± SEM.
Where [10] appears, read: THP-1, 72 h, read-out: IC50 Range.
The mark [11] stands for this setting: THP-1 macrophages, time point 48 h, read-out: IC50 Mean ± SEM.
Setting [12] is: THP-1 macrophages, time point 48 h, read-out: IC50 Range.

“Also recorded” adds a separate entry of the source. Where two headings read alike, the source gives them in different places. Non-standard residues stand in square brackets, D forms with d. Residues, ends and D or L forms follow the SMILES beside them. *: point of attachment. Sta = CC(C)C[C@H](N)[C@@H](O)CC(=O)O; pNA = O=[N+]([O-])c1ccc(N*)cc1; Isovaleryl = CC(C)CC(=O)*; Cbz = O=C(OCc1ccccc1)*

As to `COC(=O)C(=O)[C@H](CC(C)C)NC(=O)[C@H](CCCCN)NC(=O)[C@H](Cc1ccccc1)NC(=O)OCc1ccccc1` [Cbz-Phe-Lys-Leu-CO—CO2Me], the CC50 at 72 h in series [1] and in series [4] was more than 100 µM throughout. The “Cytotoxicity against THP1 macrophages” value in series [2] is reported as “does not have significant cytotoxicity”. For the same molecule, in series [3] (FRET substrate UFNG1), the “Inhibition of cleavage of UFNG1 by M. bovis cells” value (“Inhibition of cleavage of UFNG1” for short) was “most significant inhibition”. In addition, the 50% inhibitory concentration (IC50) in series [5] (setting [8]) was 69.7 ± 18.7 µM; in series [5] (setting [9]), 13.9 ± 4.86 µM; in series [5] (setting [10]), 8.24 to 23.6 µM; in series [5] (setting [11]), 19.6 ± 4.98 µM; in series [5] (setting [12]), 12.7 to 29.3 µM. In series [5], the “Mtb survival in THP1 macrophages” value was “effectively reduces Mtb survival”. Besides, the “IC50 Range” value in series [5] (THP-1 macrophages, time point 24 h) fell in the range of 51.09 to 8.38 μM.
For `CC(C)C[C@H](NC(=O)[C@H]1O[C@@H]1C(=O)O)C(=O)NCCCCN=C(N)N` [E-64], in series [3] (FRET substrate UFNG1), the “Inhibition of cleavage of UFNG1” value is given as “do not inhibit cleavage of UFNG1 appreciably”.
Turning to `NCCc1ccc(S(=O)(=O)F)cc1` [AEBSF], in series [3], the “Inhibition of cleavage of UFNG1” value is listed as “most significant inhibition”.
For `O=C(O)CN(CCN(CC(=O)O)CC(=O)O)CC(=O)O` [EDTA], in series [3] (FRET substrate UFNG1), the “Inhibition of cleavage of UFNG1” value was “do not inhibit cleavage of UFNG1 appreciably”.
For the molecule `O=S(=O)(F)Cc1ccccc1` [PMSF, phenylmethylsulfonyl fluoride], in series [3], the “Inhibition of cleavage of UFNG1” value was “did not significantly inhibit cleavage”. The “Inhibition of Hip1 (studies have shown)” value in series [6] is recorded as “not an effective inhibitor of purified recombinant Hip1; also recorded: poor inhibitor of Hip1”.
With `CC(=O)N[C@@H](CC(C)C)C(=O)N[C@@H](CC(C)C)C(=O)N[C@H](C=O)CCCNC(=N)N` [leupeptin], in series [6], the “Inhibition of Hip1 (studies have shown)” value was “inhibit Hip1”.
Consider `CC(C)C[C@H](NC(=O)[C@@H](NC(=O)N[C@@H](Cc1ccccc1)C(=O)O)[C@@H]1CCN=C(N)N1)C(=O)N[C@H](C=O)Cc1ccccc1` [chymostatin], for which the “Inhibition of Hip1 (studies have shown)” value in series [6] was “inhibit Hip1”.
On to `CC(C)C[C@H](NC(=O)[C@H](CCCCN)NC(=O)[C@H](Cc1ccccc1)NC(=O)OCc1ccccc1)C(=O)Nc1ccc([N+](=O)[O-])cc1` [Cbz-Phe-Lys-Leu-pNa] (Cbz-Phe-Lys-Leu-pNA), for which the “Cleavage of substrate by M. bovis cells” value in series [7] is listed as “cleaved by M. bovis”.
Consider `COC(=O)C(=O)[C@H](C[C@@H]1CCNC1=O)NC(=O)[C@H](CCCCN)NC(=O)[C@H](Cc1ccccc1)NC(=O)OCc1ccccc1` [Inhibitor Compound 2, Cbz-Phe-Lys-Glnlac-CO—CO2Me], for which, in series [2], the “Cytotoxicity against THP1 macrophages” value is “does not have significant cytotoxicity”. Besides, in series [3] (FRET substrate UFNG1), the “Inhibition of cleavage of UFNG1” value is listed as “most significant inhibition”. Besides, the IC50 in series [5] (setting [8]) is 104 ± 39.1 µM; in series [5] (THP-1, 24 h, read-out: IC50 Range), 44.4 to 178 µM; in series [5] (setting [9]) it was 51.8 ± 14.7 µM; in series [5] (setting [10]), 25.6 to 53.3 µM; in series [5] (setting [11]) it was 58.4 ± 1.15 µM; in series [5] (setting [12]), 57.3 to 59.6 µM. For the same molecule, the “Mtb survival in THP1 macrophages” value in series [5] was “effectively reduces Mtb survival”.
In the case of `CC(C)CC(=O)N[C@H](C(=O)N[C@H](C(=O)N[C@@H](CC(C)C)[C@@H](O)CC(=O)N[C@@H](C)C(=O)N[C@@H](CC(C)C)[C@@H](O)CC(=O)O)C(C)C)C(C)C` [pepstatin] (Isovaleryl-VV[Sta]A[Sta]-OH), the “Inhibition of cleavage of UFNG1” value in series [3] (FRET substrate UFNG1) is “do not inhibit cleavage of UFNG1 appreciably”.

The values above are taken from US20250237649A1 (priority 2021, published 2025).
